Patent US9212205B2, “Nucleic acid binding compounds and methods of use” (University of Rochester, priority 2007, dated 2015)

How the values were obtained:
[1] = target: (CUG) repeat RNA SEQ ID NO:7; test: Filter binding assay (FBA), SEQ ID NO:7; conditions: negative control; method (FBA or FT) not stated; read-out: KD for CUG repeat RNA (SEQ ID NO:7)
Protocol: A filter binding assay system was utilized to provide a rapid initial assessment of binding affinity. All binding studies were performed in PBS pH 7.2+1 mM MgCl2 at 22° C. Various concentrations of small molecules were incubated with 10 nM FAM-labeled RNA in a total volume of 50 μl for 20 minutes. A slot blot apparatus was then assembled with a wet nitrocellulose filter, on top of a wet nylon filter, on top of filter paper. 40 μl of each binding mixture was then loaded into an individual well of the apparatus and allowed to penetrate the filters for 10 minutes. The peptidic disulfides selected from the DCL efficiently bind to the nitrocellulose filter. In contrast, the FAM-labeled RNA strands penetrate the nitrocellulose filter and are bound by the nylon filter. As such, RNA bound by the peptidic library members remains bound on the nitrocellulose filter, and unbound RNA passes to the nylon filter.
Densitometric analysis of the ratio of labeled RNA on the nitrocellulose to nylon filters allows quantification of binding (FIG. 15A). All binding isotherms were fit to the logistic binding model (Equation 1 above). The repetitive nature of the target sequences may in some cases result in binding stoichiometries that are more complex than a simple 1:1 interaction.
To test specificity and to confirm the determined binding affinities, filter binding assays and fluorescence titrations were performed with SEQ ID NOS: 7-11 (Table 5), and the HIV-1 frameshift stimulating RNA hairpin used in preceding Examples (SEQ ID NO:1, Table 5). Fluorescence titrations were performed using a Varian Cary Eclipse spectrophotometer. 2 μl of 50 or 500 μM small molecule were titrated into 400 μl of FAM labeled RNA sequences an allowed to equilibrate for at least 10 minutes, or until no change in fluorescence spectra was observed. Changes in fluorescence emission at 518 nm (excitation at 490 nm) were measured. Raw data were corrected for dilution dependant changes, and Em518 was plotted against small molecule concentration and fit to the one site binding equation y=(bmaz*x)/(KD+x).) Competition experiments utilizing target RNA (SEQ ID NO:7) and a 20-fold molar excess of total yeast tRNA were performed to measure non-specific RNA binding (Luedtke et al., “RNA-Ligand Interactions: Affinity and Specificity of Aminoglycoside Dimers and Acridine Conjugates to the HIV-1 Rev Response Element,” Biochemistry 42:11391-11403 (2003), which is hereby incorporated by reference in its entirety). Compound 1-1, the HIV-1 RNA ligand, served as a negative control.

[2] = target: RNA stem loop with an altered loop sequence (Seq IV, SEQ ID NO:4); test: SPR binding specificity, Seq IV; conditions: read-out: affinity for sequence IV
Protocol: Graphical analysis of Surface Plasmon Resonance (SPR) data was carried out using DeltaGraph (Rockware Inc.). SPR analysis was conducted on a Reichert SR7000 refractometer using Reichert gold sensor slides that consist of a mixed self-assembled monolayer of thiol-PEG-alcohols and thio-PEG-carboxylic acids (˜9:1; PEG=polyethylene glycol). Amine functionalized small molecules were attached by […]/EDC coupling to the carboxy termini of the surface. After activating the monolayer, molecules were covalently attached through the addition of a 1 mg/mL solution of molecule in a sodium acetate buffer (20 mM, pH=5.5). Unreacted activated esters were quenched through the addition of ethanolamine. A flow rate of 10 μL/min and injection volumes of 150 μL was used throughout the experiment. RNA solutions were made to be 15.3 nM, 62.5 nM, 250 nM, 500 nM, 1 μM, 2 μM, 10 μM, and 50 μM. […]
Specificity was assessed by measuring the affinity of 1-1 to three other oligonucleotides: the DNA sequence homologous to I (Seq II, FIG. 7C, SEQ ID NO:2), the alternate RNA stem-loop (Seq III, FIG. 7D, SEQ ID NO:3) (Karan et al., “RNA-Selective Coordination Complexes Identified via Dynamic Combinatorial Chemistry,” J. Am. Chem. Soc. 123:7455-7456 (2001), which is hereby incorporated by reference in its entirety), and an RNA stem loop with an altered loop sequence (Seq IV, FIG. 7E, SEQ ID NO:4).

[3] = tested on: HIV-1 frameshift-inducing RNA stem-loop; test: Resin-bead fluorescence microscopy screen (RBDCC) with Cy3-labeled RNA; format: binding; conditions: x-y: x resin-bound, y solution phase; 500 nM RNA stem-loop, 72 hours, 50 msec exposure
Protocol: First, as a control, 450 beads (150 of each size, 3 beads/compound, 387 nmol total) were placed in a 1.5 ml solid phase reaction vessel. To this was added a 1 ml solution of 1 μM RNA-Cy3 in phosphate buffer. This solution was agitated for 3 hours on a LabQuake™ rotator. After such time, the solution was drained by vacuum and washed three times with buffer (1 ml, 1 min. each). After washing, the resin was suspended in 2 ml buffer and placed in a Petri dish.
Next, RBDCC experiments were run in quadruplet. […] After such time, the solution was removed from 1 of the 4 experiments and the resin was washed with buffer, plated with 2 ml buffer, and analyzed by fluorescence microscopy as described above. […]
1, 2, and 3 were individually synthesized on TentaGel (0.86 nmol/bead), and equilibrated as described above in separate vessels containing only 1, 2, or 3 solution phase monomers and 500 nM RNA stem-loop, half the concentration used in the initial screen. After 72 hours the resin was washed in a manner identical to the conditions of screen number 4 (i.e., the highest stringency screen) and analyzed by fluorescence microscopy (50 msec. exposure) (see FIGS. 6A-I).

Question: `CCc1nc2ccccc2cc1C(=O)N[C@@H](CSSC[C@H](NC(=O)c1cc2ccccc2nc1CC)C(=O)N1CCC[C@H]1C(=O)N[C@@H](Cc1ccccc1)C(=O)NCCCN)C(=O)N1CCC[C@H]1C(=O)N[C@@H](Cc1ccccc1)C(=O)NCCCN` [dimer 1-1] was tested. Which Kd [1] did it give?
Answer: > 40 µM

Question: And the Kd [2]?
Answer: > 90 µM

Question: And the “affinity for the RNA stem-loop by bead fluorescence intensity” value [3]?
Answer: highest affinity
